Experimental data: patent US20210122730A1, “GLUCOCORTICOID RECEPTOR MODULATORS” (ORIC Pharmaceuticals, Inc., priority 2017, published 2021)
pIC50: −log10 of the molar value.

molecular target: T1, GR (Homo sapiens, UniProt P04150); assay: In Vitro GR Luciferase Reporter Assay (antagonist mode, CHO-K1-GR-MMTV-Luc reporter cells); assay type: cell-based; conditions: antagonist mode, 10 nM Dexamethasone
T1 construct: expressed in transfected cells; host or cells: CHO-K1
T1 sequence (P04150 1-777): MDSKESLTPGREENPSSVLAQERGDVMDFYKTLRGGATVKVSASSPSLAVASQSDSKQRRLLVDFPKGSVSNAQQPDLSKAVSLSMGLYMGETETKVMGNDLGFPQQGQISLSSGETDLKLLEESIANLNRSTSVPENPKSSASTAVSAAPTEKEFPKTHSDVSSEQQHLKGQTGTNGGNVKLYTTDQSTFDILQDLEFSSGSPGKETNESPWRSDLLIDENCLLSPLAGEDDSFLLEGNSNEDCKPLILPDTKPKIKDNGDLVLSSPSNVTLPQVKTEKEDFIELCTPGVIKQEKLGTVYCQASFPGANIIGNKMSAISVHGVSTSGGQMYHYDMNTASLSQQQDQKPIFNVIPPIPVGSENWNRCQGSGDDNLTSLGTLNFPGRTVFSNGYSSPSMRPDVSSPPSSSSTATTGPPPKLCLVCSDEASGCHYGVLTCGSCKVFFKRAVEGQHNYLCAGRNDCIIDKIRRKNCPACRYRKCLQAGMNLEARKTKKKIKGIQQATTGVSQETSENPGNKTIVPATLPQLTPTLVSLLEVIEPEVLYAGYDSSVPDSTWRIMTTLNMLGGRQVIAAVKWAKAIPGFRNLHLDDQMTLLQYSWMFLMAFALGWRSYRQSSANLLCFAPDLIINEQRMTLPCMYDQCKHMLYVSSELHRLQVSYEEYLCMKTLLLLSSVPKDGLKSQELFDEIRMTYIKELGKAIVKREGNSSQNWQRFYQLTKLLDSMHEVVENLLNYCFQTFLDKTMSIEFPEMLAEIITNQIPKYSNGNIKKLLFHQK
In short: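 Antagonist mode: compounds (8 serial 1:5 dilutions) added to GR-MMTV-luciferase CHO-K1 reporter cells co-exposed to 10 nM dexamethasone final, in phenol red-free DMEM plus 10% CSS. After roughly 18-24 h at 37° C, OneGlo luminescence read and IC50 calculated.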

pIC50, ≥ 7.00:
Cn1ncc(S(=O)(=O)N(C2CC2)[C@H]2CCC3=Cc4c(cnn4-c4ccc(F)cc4)C[C@]3(C(=O)c3ncc(C4CC4)s3)C2)n1 [Example 174, N-cyclopropyl-N-((4aS,6S)-4a-(5-cyclopropylthiazole-2-carbonyl)-1-(4-fluorophenyl)-4,4a,5,6,7,8-hexahydro-1H-benzo[f]indazol-6-yl)-2-methyl-2H-1,2,3-triazole-4-sulfonamide]
CCN([C@H]1CCC2=Cc3c(cnn3-c3ccc(F)cc3)C[C@]2(C(=O)c2ncc(C3CC3)s2)C1)S(=O)(=O)c1ccn(C)n1 [Example 175, N-((4aS,6S)-4a-(5-cyclopropylthiazole-2-carbonyl)-1-(4-fluorophenyl)-4,4a,5,6,7,8-hexahydro-1H-benzo[f]indazol-6-yl)-N-ethyl-1-methyl-1H-pyrazole-3-sulfonamide]
O=C(c1ncc(C(F)(F)F)s1)[C@]12Cc3cnn(-c4ccc(F)cc4)c3C=C1CC[C@H](N(C1CC1)S(=O)(=O)c1cnn(C(F)F)c1)C2 [Example 180, N-cyclopropyl-1-(difluoromethyl)-N-((4aS,6S)-1-(4-fluorophenyl)-4a-(5-(trifluoromethyl)thiazole-2-carbonyl)-4,4a,5,6,7,8-hexahydro-1H-benzo[f]indazol-6-yl)-1H-pyrazole-4-sulfonamide]
Cn1cc(S(=O)(=O)N(CC2CC2)[C@H]2CCC3=Cc4c(cnn4-c4ccc(F)cc4)C[C@]3(C(=O)c3ncc(C(F)(F)F)s3)C2)cn1 [Example 181, N-(cyclopropylmethyl)-N-((4aS,6S)-1-(4-fluorophenyl)-4a-(5-(trifluoromethyl)thiazole-2-carbonyl)-4,4a,5,6,7,8-hexahydro-1H-benzo[f]indazol-6-yl)-1-methyl-1H-pyrazole-4-sulfonamide]
CC(C)N([C@H]1CCC2=Cc3c(cnn3-c3ccc(F)cc3)C[C@]2(C(=O)c2ncc(C3CC3)s2)C1)S(=O)(=O)c1ccn(C)n1 [Example 185, N-((4aS,6S)-4a-(5-cyclopropylthiazole-2-carbonyl)-1-(4-fluorophenyl)-4,4a,5,6,7,8-hexahydro-1H-benzo[f]indazol-6-yl)-N-isopropyl-1-methyl-1H-pyrazole-3-sulfonamide]
Cn1ccc(S(=O)(=O)N(CC2CC2)[C@H]2CCC3=Cc4c(cnn4-c4ccc(F)cc4)C[C@]3(C(=O)c3ncc(C4CC4)s3)C2)n1 [Example 187, N-(cyclopropylmethyl)-N-((4aS,6S)-4a-(5-cyclopropylthiazole-2-carbonyl)-1-(4-fluorophenyl)-4,4a,5,6,7,8-hexahydro-1H-benzo[f]indazol-6-yl)-1-methyl-1H-pyrazole-3-sulfonamide]
Cn1cc(C(=O)N(C2CC2)[C@H]2CCC3=Cc4c(cnn4-c4ccc(F)cc4)C[C@]3(C(=O)c3ncc(C(F)(F)F)s3)C2)cn1 [Example 188, N-cyclopropyl-N-((4aS,6S)-1-(4-fluorophenyl)-4a-(5 (trifluoromethyl)thiazole-2-carbonyl)-4,4a,5,6,7,8-hexahydro-1H-benzo[f]indazol-6-yl)-1-methyl-1H-pyrazole-4-carboxamide]
Cn1cc(S(=O)(=O)[C@H]2CCC3=Cc4c(cnn4-c4ccc(F)cc4)C[C@]3(C(=O)c3ncc(C(F)(F)F)s3)C2)cn1 [Example 190, ((4aS,6S)-1-(4-fluorophenyl)-6-((1-methyl-1H-pyrazol-4-yl)sulfonyl)-1,4,5,6,7,8-hexahydro-4aH-benzo[f]indazol-4a-yl)(5-(trifluoromethyl)thiazol-2-yl)methanone]
CC(C)N([C@H]1CCC2=Cc3c(cnn3-c3ccc(F)cc3)C[C@]2(C(=O)c2ncc(C3CC3)s2)C1)S(=O)(=O)c1cnn(C)c1 [Example 192, N-((4aS,6S)-4a-(5-cyclopropylthiazole-2-carbonyl)-1-(4-fluorophenyl)-4,4a,5,6,7,8-hexahydro-1H-benzo[f]indazol-6-yl)-N-isopropyl-1-methyl-1H-pyrazole-4-sulfonamide]
Cn1ccc(C(=O)N(C2CC2)[C@H]2CCC3=Cc4c(cnn4-c4ccc(F)cc4)C[C@]3(C(=O)c3cc(C(F)(F)F)ccn3)C2)n1 [Example 197, N-cyclopropyl-N-((4aS,6S)-1-(4-fluorophenyl)-4a-(4-(trifluoromethyl)picolinoyl)-4,4a,5,6,7,8-hexahydro-1H-benzo[f]indazol-6-yl)-1-methyl-1H-pyrazole-3-carboxamide]
Cn1ncc(S(=O)(=O)N(CC2CC2)[C@H]2CCC3=Cc4c(cnn4-c4ccc(F)cc4)C[C@]3(C(=O)c3cc(C(F)(F)F)ccn3)C2)n1 [Example 200, N-(cyclopropylmethyl)-N-((4aS,6S)-1-(4-fluorophenyl)-4a-(4-(trifluoromethyl)picolinoyl)-4,4a,5,6,7,8-hexahydro-1H-benzo[f]indazol-6-yl)-2-methyl-2H-1,2,3-triazole-4-sulfonamide]
O=C(c1ncc(C(F)(F)F)s1)[C@]12Cc3cnn(-c4ccc(F)cc4)c3C=C1CC[C@H](N(C1COC1)S(=O)(=O)c1ccc(F)cc1)C2 [Example 205, 4-fluoro-N-((4aS,6S)-1-(4-fluorophenyl)-4a-(5-(trifluoromethyl)thiazole-2-carbonyl)-4,4a,5,6,7,8-hexahydro-1H-benzo[f]indazol-6-yl)-N-(oxetan-3-yl)benzenesulfonamide]
Cn1cc(S(=O)(=O)N(C2COC2)[C@H]2CCC3=Cc4c(cnn4-c4ccc(F)cc4)C[C@]3(C(=O)c3ncc(C(F)(F)F)s3)C2)cn1 [Example 207, N-((4aS,6S)-1-(4-fluorophenyl)-4a-(5-(trifluoromethyl)thiazole-2-carbonyl)-4,4a,5,6,7,8-hexahydro-1H-benzo[f]indazol-6-yl)-1-methyl-N-(oxetan-3-yl)-1H-pyrazole-4-sulfonamide]
CC(C)N([C@H]1CCC2=Cc3c(cnn3-c3ccc(F)cc3)C[C@]2(C(=O)c2ncc(C(F)(F)F)s2)C1)S(=O)(=O)c1ccc(Cl)cc1 [Example 208, 4-chloro-N-((4aS,6S)-1-(4-fluorophenyl)-4a-(5-(trifluoromethyl)thiazole-2-carbonyl)-4,4a,5,6,7,8-hexahydro-1H-benzo[f]indazol-6-yl)-N-isopropylbenzenesulfonamide]
CC(C)N([C@H]1CCC2=Cc3c(cnn3-c3ccc(F)cc3)C[C@]2(C(=O)c2ncc(C(F)(F)F)s2)C1)S(=O)(=O)c1ccc(F)cc1 [Example 209, 4-fluoro-N-((4aS,6S)-1-(4-fluorophenyl)-4a-(5-(trifluoromethyl)thiazole-2-carbonyl)-4,4a,5,6,7,8-hexahydro-1H-benzo[f]indazol-6-yl)-N-isopropylbenzenesulfonamide]
Cn1cc(S(=O)(=O)N(C2COC2)[C@H]2CCC3=Cc4c(cnn4-c4ccc(F)cc4)C[C@]3(C(=O)c3cc(C(F)(F)F)ccn3)C2)cn1 [Example 213, N-((4aS,6S)-1-(4-fluorophenyl)-4a-(4-(trifluoromethyl)picolinoyl)-4,4a,5,6,7,8-hexahydro-1H-benzo[f]indazol-6-yl)-1-methyl-N-(oxetan-3-yl)-1H-pyrazole-4-sulfonamide]
Cn1cc(S(=O)(=O)N(C2COC2)[C@H]2CCC3=Cc4c(cnn4-c4ccc(F)cc4)C[C@]3(C(=O)c3ncc(C(F)(F)F)s3)C2)nn1 [Example 218, N-((4aS,6S)-1-(4-fluorophenyl)-4a-(5-(trifluoromethyl)thiazole-2-carbonyl)-4,4a,5,6,7,8-hexahydro-1H-benzo[f]indazol-6-yl)-1-methyl-N-(oxetan-3-yl)-1H-1,2,3-triazole-4-sulfonamide]
Cn1cc(S(=O)(=O)N(C2COC2)[C@H]2CCC3=Cc4c(cnn4-c4ccc(F)cc4)C[C@]3(C(=O)c3cc(C(F)(F)F)ccn3)C2)nn1 [Example 220, N-((4aS,6S)-1-(4-fluorophenyl)-4a-(4-(trifluoromethyl)picolinoyl)-4,4a,5,6,7,8-hexahydro-1H-benzo[f]indazol-6-yl)-1-methyl-N-(oxetan-3-yl)-1H-1,2,3-triazole-4-sulfonamide]
Cn1cc(S(=O)(=O)N(C2CCC2)[C@H]2CCC3=Cc4c(cnn4-c4ccc(F)cc4)C[C@]3(C(=O)c3cc(C(F)(F)F)ccn3)C2)cn1 [Example 235, N-cyclobutyl-N-((4aS,6S)-1-(4-fluorophenyl)-4a-(4-(trifluoromethyl)picolinoyl)-4,4a,5,6,7,8-hexahydro-1H-benzo[f]indazol-6-yl)-1-methyl-1H-pyrazole-4-sulfonamide]
O=C(c1cc(C(F)(F)F)ccn1)[C@]12Cc3cnn(-c4ccc(F)cc4)c3C=C1CC[C@H](N(C1CCCC1)S(=O)(=O)c1ccc(F)cc1)C2 [Example 237, N-cyclopentyl-4-fluoro-N-((4aS,6S)-1-(4-fluorophenyl)-4a-(4-(trifluoromethyl)picolinoyl)-4,4a,5,6,7,8-hexahydro-1H-benzo[f]indazol-6-yl)benzenesulfonamide]
